Experimental data reported in patent publication US8883859B1, “Viral inhibitor compositions for in vivo therapeutic use comprising a combination of (-) -carvone, geraniol and a further essential oil component” (Cesa Alliance S.A., priority 2010, dated 2014).

What was measured:
[1] = system: human DNA viruses (HSV, ADV) and RNA viruses (CVB1, EV71); settings: each component used alone; cited from earlier work
[2] = system: Human Papilloma Virus (HPV); assay: Comparative tests: cervical lesions caused by HPV, 44 female patients, observation after 10 days; type: in vivo; settings: undiluted composition
Experimental: The hereunder mentioned comparative tests are aimed to establish observation(s) after 10 days on 44 female human patients by Controlled Clinical Trial on Cervical Lesions (wounds) caused by the Human Papilloma Virus (HPV) which is a double stranded DNA non enveloped virus. […] In order to establish the non-activity of possible placebo's to be used in the clinical trial, 44 HPV infected patients were treated with a one-time dose of Placebos compositions.

[3] = system: adenovirus type 6; settings: in vitro; cited from earlier work
[4] = system: ES strain of lymphomatosis virus; settings: US 3,429,971 table 2; cited from earlier work

Molecule	antiviral activity [1]	other results
CC(C)=CCC/C(C)=C/CO [geraniol]	No activity	
C=CC(=C)CCC=C(C)C [beta-myrcene]	No activity	
(R)-Carvone + (S)-Carvone [Placebo 3]		Observation(s) after 10 days: regression of lesions on the surface of the cervix [2]: No regression of lesions
CC(C)=CCCC(C)=CCCC(C)=CCO [farnesol]	No activity	
(cis+trans)-1,2-(+)-Limonene oxide [Placebo 18]		Observation(s) after 10 days: regression of lesions on the surface of the cervix [2]: No regression of lesions
CC(C)[C@]12CC(=O)[C@H](C)[C@H]1C2 [alpha-thujone]	No activity	
C=C(C)[C@H](CO)CC=C(C)C [Placebo 21, Lavendulol]		Observation(s) after 10 days: regression of lesions on the surface of the cervix [2]: No regression of lesions
CC12CCC(C1)C(C)(C)C2=O (stereo not shown) [fenchone]	No activity	
C=C(C)C1CC=C(C)C(=O)C1 (stereo not shown) [carvone]	No activity	antiviral activity against adenovirus type 6 [3]: antiviral activity
C=C1CC/C=C(\C)CC[C@@H]2[C@@H]1CC2(C)C [beta-caryophylene]	No activity	
CC12CCC(CC1)C(C)(C)O2 [cineole]	No activity	
CC(C)=CCC/C(C)=C/CO [Trans-2,6-dimethyl-2,6,octadiene-8-ol, (2E)-3,7-dimethylocta-2,6-dien-1-ol]		No. cures [4]: 0
